According to patent publication US4593090A, “Novel nitrosourea compounds, method for preparing same, and pharmaceutical composition containing same” (Gogo Kimura, priority 1981, dated 1986):
Like-named read-outs stand apart in the source and are kept apart here.

How the values were obtained:
[1] = Diuretic activity, acute sodium loaded mouse screening test; assay type: in vivo, male mice; conditions: 50 mg/kg oral in 1% saline
Description: The diuretic activity of the compounds of this invention was assayed by the diuresis screening test referred to as "acute sodium loaded mouse". This test was carried out by the following method.
The acute sodium loaded mouse screening test was carried out by using a 10-membered group of male mice (each weighing 18 to 24 g). Test compounds were incorporated in 1% saline (NaCl) solution and orally administered in a volume of 10 ml/kg. The mice were placed in metabolic cages. Each treated group consisted of 10-members. Five members were placed in one cage. Tests were conducted by oral administrations of (A) 1% saline (NaCl) solution to the control group and (B) 1% saline (NaCl) solution containing a test compound according to this invention.
The determination was carried out for sodium, potassium, and chlorine in each pooled urine sample. The determination of sodium and potassium was carried out by flame photometer. Chlorine was determined by chloride analysis apparatus. The analytical values of sodium, potassium, and chlorine were shown with an average mg equivalent (m Eq)/Kg/5 hours, and the diuretic activity was shown with an average urine volume (ml)/Kg/5 hours.

Leukemia L1210 [2] = assay: Activity against Leukemia L1210, intraperitoneal, increase in life span of mice; assay type: in vivo, female mice (BDF1 family); conditions: for ED (maximum ILS) / ED30: Mus musculus, L1210, ip, ip once a day for 5 successive days; for ED (maximum ILS): daily dosage giving maximum increase of life span, read-out: O.D. (optimum dosage); for ED30: daily dosage increasing average survival days by 30%, read-out: ILS30; for Survivors after 60 days / Max. ILS % / Therapeutic ratio TR: ip; for Survivors after 60 days: 6-membered group; for Max. ILS %: 60-day observation, versus control; for Therapeutic ratio TR: O.D./ILS30
Procedure, shortened: (§1)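 Female BDF1 mice (20 to 23 g; 6 per group) were implanted intraperitoneally with 1×10^5 L1210 cells, then dosed ip or orally once daily for 5 days starting 24 h later. Survival was followed over 60 days, and ILS% was derived from mean survival days versus untreated controls.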

[3] = Acute toxicity (LD50, Behrens-Karber method); assay type: in vivo, ICR mice; conditions: mouse, in vivo, ip, mortality during 30 days
Description: Test compounds, dissolved or suspended in 0.5% aqueous CMC, were each intraperitoneally administered to ICR mice in a dose of 0.1 ml per 10 g body weight. LD50 (mg/kg) value of each test compound was calculated from the mortality of mice during 30 days by the Behrens-Karber method.

Leukemia L1210 [4] = assay: Activity against Leukemia L1210, oral, increase in life span of mice; assay type: in vivo, female mice (BDF1 family); conditions: for ED (maximum ILS) / ED30: Mus musculus, L1210, oral once a day for 5 successive days; for ED (maximum ILS): daily dosage giving maximum increase of life span, read-out: O.D. (optimum dosage); for ED30: daily dosage increasing average survival days by 30%, read-out: ILS30; for Survivors after 60 days / Max. ILS % / Therapeutic ratio TR: oral; for Survivors after 60 days: 6-membered group; for Max. ILS %: 60-day observation, versus control; for Therapeutic ratio TR: O.D./ILS30
Procedure, shortened: as §1

Ehrlich acites carcinoma = assay: Growth-inhibiting effect against Ehrlich acites carcinoma; assay type: in vivo, male mice; conditions: 5 days; for response vs control in vivo at 25 mg/kg / response vs control in vivo at 100 mg/kg / response vs control in vivo at 3.2 mg/kg / response vs control in vivo at 12.5 mg/kg / response vs control in vivo at 6.3 mg/kg: Mus musculus, Ehrlich, 120 h; for response vs control in vivo at 25 mg/kg: 25 mg/kg/day ip; for response vs control in vivo at 100 mg/kg: 100 mg/kg/day ip; for response vs control in vivo at 3.2 mg/kg: 3.2 mg/kg/day ip; for response vs control in vivo at 6.3 mg/kg: 6.3 mg/kg/day ip
Procedure, shortened: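 Male mice (groups of 6) implanted intraperitoneally with 1×10^7 Ehrlich ascites cells; compounds in 1% Nikkol HCO-60 given i.p. once daily for 5 days starting 24 hrs post-implantation. Total packed cell volume measured at day 7; T/C% vs untreated group, scored - (100-66), + (65-41), ++ (40-11), +++ (10-0).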

[5] = 12.5 mg/kg/day ip, read-out: T/C %

Row | SMILES | ED (maximum ILS) (Leukemia L1210 [2]) [mg/kg] | ED30 (Leukemia L1210 [2]) [mg/kg] | Survivors after 60 days (Leukemia L1210 [2]) | Max. ILS % (Leukemia L1210 [2]) [%] | Therapeutic ratio TR (Leukemia L1210 [2]) | LD50 at 720 h [3] [mg/kg] | ED (maximum ILS) (Leukemia L1210 [4]) [mg/kg] | ED30 (Leukemia L1210 [4]) [mg/kg] | Survivors after 60 days (Leukemia L1210 [4]) | Max. ILS % (Leukemia L1210 [4]) [%] | Therapeutic ratio TR (Leukemia L1210 [4]) | response vs control in vivo at 25 mg/kg (Ehrlich acites carcinoma; read-out: Activity) [%] | response vs control in vivo at 25 mg/kg (Ehrlich acites carcinoma; read-out: T/C %) [%] | response vs control in vivo at 100 mg/kg (Ehrlich acites carcinoma; read-out: Activity) [%] | response vs control in vivo at 100 mg/kg (Ehrlich acites carcinoma; read-out: T/C %) [%] | further results
1 | CC(C)CO[C@@H]1O[C@H](CN(C(=O)N(CCCl)N=O)C(C)(C)C)[C@@H](O)[C@H](O)[C@H]1O [Compound 175, 3-tert-butyl-3-(isobutyl β-D-glucopyranose-6-yl)-1-(2-chloroethyl)-1-nitrosourea] | 170 | 3.33 | 6/6 | > 700 | 51.0 | 550 | – | – | – | – | – | – | – | – | – | Urine volume [1]: 9.4 ml/kg/5 hrs.; Cl^- ([1]; urine): 0.8 mEq/kg/5 hrs.; K^+ ([1]; urine): 0.9 mEq/kg/5 hrs.; Na^+ ([1]; urine): 0.6 mEq/kg/5 hrs.
2 | CCCCO[C@H]1O[C@H](CO)[C@H](N(C(=O)N(CCCl)N=O)C(C)COC)[C@H](O)[C@H]1O (stereo partly drawn) [Compound 132, 3-(1-methyl-2-methoxyethyl)-3-(n-butyl α-D-galactopyranose-4-yl)-1-(2-chloroethyl)-1-nitrosourea] | 160 | 3.86 | 4/6 | > 420 | 41.5 | 550 | 200 | 14 | 3/6 | > 345 | 14.3 | 0 to 10 | 0 | 0 to 10 | 0 | –
3 | O=NN(CCCl)C(=O)N[C@@H]1O[C@H](CO)[C@@H](O)[C@H](O)[C@H]1O [GANU, 3-(β-D-glucopyranosyl)-1-(2-chloroethyl)-1-nitrosourea, reference compound] | 6.2 | 0.45 | 4/6 | > 425 | 13.8 | 35 | 6.35 | 2.5 | 0/6 | 94 | 2.54 | – | – | – | – | Activity (toxicity in words) (Ehrlich acites carcinoma; 25.0 mg/kg/day ip): Toxic (6/6); response vs control in vivo at 3.2 mg/kg (Ehrlich acites carcinoma; read-out: Activity): 0 to 10%; response vs control in vivo at 3.2 mg/kg (Ehrlich acites carcinoma; read-out: T/C %): 0%; response vs control in vivo at 12.5 mg/kg (Ehrlich acites carcinoma; 12.5 mg/kg/day ip, read-out: Activity): 0 to 10%; response vs control in vivo at 12.5 mg/kg (Ehrlich acites carcinoma; [5]): 0%
4 | CC(C)CN(C[C@H]1O[C@H](OCC2CCCO2)[C@@H](O)[C@@H](O)[C@@H]1O)C(=O)N(CCCl)N=O (stereo partly drawn) [Compound 136, 3-(isobuty)-3-(tetrahydrofurfuryl α-D-mannopyranose-6-yl)-1-(2-chloroethyl)-1-nitrosourea] | 200 | 2.94 | 6/6 | > 700 | 68.0 | 600 | 240 | 10.1 | 5/6 | > 625 | 23.8 | 0 to 10 | 0 | 0 to 10 | 0 | –
5 | O=NN(CCCl)C(=O)N(C1CCCCC1)C1C(OCC2CCCO2)OC(CO)C(O)C1O [Compound 75, 3-cyclohexyl-3-(tetrahydrofurfuryl α-D-glucopyranose-2-yl)-1-(2-chloroethyl)-1-nitrosourea] | 160 | 3.67 | 5/6 | > 625 | 43.6 | 505 | 200 | 11.6 | 4/6 | > 450 | 17.2 | 0 to 10 | 0 | 0 to 10 | 0 | –
6 | CCCCO[C@H]1O[C@H](CN(CC(C)OC)C(=O)N(CCCl)N=O)[C@@H](O)[C@H](O)[C@H]1O (stereo partly drawn) [Compound 11, 3-(2-methoxy-n-propyl)-3-(n-butyl α-D-glucopyranose-6-yl)-1-(2-chloroethyl)-1-nitrosourea] | 170 | 2.9 | 6/6 | > 700 | 58.6 | 495 | 220 | 9.57 | 6/6 | > 700 | 23.0 | 0 to 10 | 0 | 0 to 10 | 0 | –
7 | CO[C@H]1O[C@H](CNC(=O)N(CCCl)N=O)[C@@H](O)[C@H](O)[C@H]1O [Compound 6MCαG, 3-(methyl α-D-glucopyranose-6-yl)-1-(2-chloroethyl)-1-nitrosourea, reference compound] | 13.5 | 0.53 | 6/6 | > 700 | 25.5 | 40 | 16.8 | 2.45 | 6/6 | > 700 | 6.86 | – | – | – | – | Activity (toxicity in words) (Ehrlich acites carcinoma; 12.5 mg/kg/day ip): Toxic (2/6); response vs control in vivo at 3.2 mg/kg (Ehrlich acites carcinoma; read-out: Activity): 0 to 10%; response vs control in vivo at 3.2 mg/kg (Ehrlich acites carcinoma; read-out: T/C %): 0%; response vs control in vivo at 6.3 mg/kg (Ehrlich acites carcinoma; read-out: Activity): 0 to 10%; response vs control in vivo at 6.3 mg/kg (Ehrlich acites carcinoma; read-out: T/C %): 0%; response vs control in vivo at 12.5 mg/kg (Ehrlich acites carcinoma; [5]): 0%
8 | CC(C)CO[C@H]1O[C@H](CN(CC2CCCO2)C(=O)N(CCCl)N=O)[C@@H](O)[C@@H](O)[C@@H]1O (stereo partly drawn) [Compound 140, 3-tetrahydrofurfuryl-3-(isobutyl α-D-altropyranose-6-yl)-1-(2-chloroethyl)-1-nitrosourea] | 180 | 2.8 | 6/6 | > 700 | 64.3 | 540 | 220 | 9.69 | 5/6 | > 620 | 22.7 | 0 to 10 | 0 | 0 to 10 | 0 | –
9 | CCOCCN(C(=O)N(CCCl)N=O)[C@@H]1[C@@H](O)[C@@H](OC2CCCCC2)OC[C@H]1O [Compound 149, 3-(2-ethoxyethyl)-3-(cyclohexyl α-D-xylopyranose-3-yl)-1-(2-chloroethyl)-1-nitrosourea] | 170 | 2.9 | 6/6 | > 700 | 58.6 | 540 | 210 | 12.8 | 4/6 | > 440 | 16.4 | 0 to 10 | 0 | 0 to 10 | 0 | –
